Test results as given in ChEMBL document CHEMBL1129930, “Analogues of methotrexate in rheumatoid arthritis. 2. Effects of 5-deazaaminopterin, 5,10-dideazaaminopterin, and analogues on type II collagen-induced arthritis in mice” (J Med Chem, 1997).

What was measured:
Mus musculus [1] = experiment: Incidence of disease (mouse type II collagen) was scored as the percentage of animals within each experimental group that exhibited joint or limb inflammation on day 23 at intraperitoneal dose of 0.38 mg/kg (deaths observed at 1.5 mg/kg); assay type: functional
Mus musculus [2] = experiment: Incidence of disease (mouse type II collagen) was scored as the percentage of animals within each experimental group that exhibited joint or limb inflammation on day 44 at intraperitoneal dose of 0.094 mg/kg (deaths observed at 1.5 mg/kg); assay type: functional
Mus musculus [3] = experiment: Tested for antiinflammatory activity on mouse type II collagen arthritis as Paw swelling of all animals in each group on day 44 at intraperitoneal dose of 0.38 mg/kg; assay type: functional
Mus musculus [4] = experiment: Tested for antiinflammatory activity on mouse type II collagen arthritis as Paw swelling of all animals in each group on day 23 at intraperitoneal dose of 0.38 mg/kg; assay type: functional
Mus musculus [5] = experiment: Incidence of disease (mouse type II collagen) was scored as the percentage of animals within each experimental group that exhibited joint or limb inflammation on day 30 at intraperitoneal dose of 0.75 mg/kg (deaths observed at 1.5 mg/kg); assay type: functional
Mus musculus [6] = experiment: Incidence of disease (mouse type II collagen) was scored as the percentage of animals within each experimental group that exhibited joint or limb inflammation on day 23 at intraperitoneal dose of 0.19 mg/kg (deaths observed at 1.5 mg/kg); assay type: functional
Mus musculus [7] = experiment: Incidence of disease (mouse type II collagen) was scored as the percentage of animals within each experimental group that exhibited joint or limb inflammation on day 37 at intraperitoneal dose of 0.38 mg/kg (deaths observed at 1.5 mg/kg); assay type: functional
Mus musculus [8] = experiment: Tested for antiinflammatory activity on mouse type II collagen arthritis as Paw swelling of all animals in each group on day 37 at intraperitoneal dose of 0.047 mg/kg; assay type: functional
Mus musculus [9] = experiment: Incidence of disease (mouse type II collagen) was scored as the percentage of animals within each experimental group that exhibited joint or limb inflammation on day 44 at intraperitoneal dose of 0.024 mg/kg (deaths observed at 1.5 mg/kg); assay type: functional
Mus musculus [10] = experiment: Tested for antiinflammatory activity on mouse type II collagen arthritis as Paw swelling of all animals in each group on day 37 at intraperitoneal dose of 0.094 mg/kg; assay type: functional
Mus musculus [11] = experiment: Tested for antiinflammatory activity on mouse type II collagen arthritis as Paw swelling of all animals in each group on day 44 at intraperitoneal dose of 0.024 mg/kg; assay type: functional
Mus musculus [12] = experiment: Tested for antiinflammatory activity on mouse type II collagen arthritis as Paw swelling of all animals in each group on day 30 at intraperitoneal dose of 0.38 mg/kg; assay type: functional
Mus musculus [13] = experiment: Tested for antiinflammatory activity on mouse type II collagen arthritis as Paw swelling of all animals in each group on day 23 at intraperitoneal dose of 0.094 mg/kg; assay type: functional
Mus musculus [14] = experiment: Tested for antiinflammatory activity on mouse type II collagen arthritis as Paw swelling of all animals in each group on day 44 at intraperitoneal dose of 0.75 mg/kg; assay type: functional
L1210 = experiment: Concentration required to inhibit the growth of L1210 cells.; assay type: functional, cell-based; details: Mus musculus
Mus musculus [15] = experiment: Incidence of disease (mouse type II collagen) was scored as the percentage of animals within each experimental group that exhibited joint or limb inflammation on day 44 at intraperitoneal dose of 0.047 mg/kg (deaths observed at 1.5 mg/kg); assay type: functional

Question: How did the Animals (Mus musculus [1]) turn out when `CCc1c(CN(C)c2ccc(C(=O)NC(CCC(=O)O)C(=O)O)cc2)cnc2nc(N)nc(N)c12` (stereo unspecified) was run?
Answer: The Animals was 0%.

Question: What about the Animals (Mus musculus [2]) of the same molecule?
Answer: Its Animals is 25%.

Question: And the Paw swelling (Mus musculus [3])?
Answer: Its Paw swelling is 2.15 mm.

Question: What about the Paw swelling (Mus musculus [4]) of the same molecule?
Answer: Its Paw swelling is 2.15 mm.

Question: And the Animals (Mus musculus [5])?
Answer: Its Animals is 14%.

Question: And the Animals (Mus musculus [6])?
Answer: The Animals was 0%.

Question: And the Animals (Mus musculus [7])?
Answer: The Animals was 0%.

Question: What about the Paw swelling (Mus musculus [8]) of the same molecule?
Answer: Its Paw swelling is 2.33 mm.

Question: What about the Animals (Mus musculus [9]) of the same molecule?
Answer: Its Animals is 25%.

Question: And the Paw swelling (Mus musculus [10])?
Answer: Its Paw swelling is 2.2 mm.

Question: And the Paw swelling (Mus musculus [11])?
Answer: The Paw swelling was 2.23 mm.

Question: And the Paw swelling (Mus musculus [12])?
Answer: The Paw swelling was 2.16 mm.

Question: What about the Paw swelling (Mus musculus [13]) of the same molecule?
Answer: Its Paw swelling is 2.15 mm.

Question: And the Paw swelling (Mus musculus [14])?
Answer: Its Paw swelling is 2.18 mm.

Question: And the IC50 (L1210)?
Answer: Its IC50 is 1 nM.

Question: And the Animals (Mus musculus [15])?
Answer: The Animals was 88%.
